Measurements as given in patent US20240100001A1, “DENATONIUM SALT FOR USE IN PREVENTING, PREVENTING PROGRESSION AND TREATING FATTY LIVER DISEASES” (AARDVARK THERAPEUTICS INC., priority 2021, published 2024).

Experiments:
[1] = test system: AMLN-diet induced NASH mice; type: in vivo
Protocol: This example provides the results obtained from a second in vivo mouse model of fatty liver disease treatment to investigate the therapeutic effect of DA on the treatment of NASH versus positive control semaglutide (a GLP-1 agonist marketed drug for lowering HbA1c). The differences in this study, from the preventive model in Example 1, were that a higher dose of DA (75 mg/kg) was used versus 30 mg/kg, dosing was twice daily (BID versus QD in the Example 1 study), a positive control semaglutide was used, a different mouse strain (B6 mice) was used, and the animals were already adults (23 weeks old in Example 2 versus 4 weeks old in Example 1) when the study began because the animals were already fed an AMLN diet for 17 weeks prior to the study being initiated. The study dose began at 75 mg/kg BID.
The study included 3 groups of 10 mice each, (A) vehicle control with distilled water by gavage BID, (B) DA by gavage BID, and (C) semaglutide […] sc QD. Body weights and changes were measured 3× per week. Serum metabolic markers (blood glucose, blood insulin, HbA1c, HDL, LDL triglycerides and bile acids) were measured at beginning of dosing (baseline) and end of study. At the end of the study, histopathology of liver samples and serum levels of inflammatory biomarkers (IL-6, TNFα, CK-18 and TGF-β) were evaluated. Histopathology was performed blindly with a scoring scale according to NAFLD Activity Score and Fibrosis Score according to Table 4.

[2] = test system: AMLN diet-induced NASH mice; assay: Example 1: one-year DA dosing of AMLN diet-induced NASH mice (prevention study); type: in vivo
Protocol: This example provides the results of a 52 week study of lower dose DA (30 mg/kg per day QD by gavage) in mice where NASH conditions were induced by diet. The data for an animal-induced NASH of such a long duration (48-52 weeks) can be interpreted to support methods for preventing fatty liver diseases, including NASH, and methods of slowing progression of fatty liver diseases, including NASH. Male C57BL/6 mice (4 weeks old at study start) were maintained on a high-fat “Western diet” (AMLN diet) (DIO-NASH) (D09100301, Research Diet, USA) (40% fat (18% trans-fat), 40% carbohydrates (20% fructose) and 2% cholesterol, 40 kcal % fat, 20 kcal % fructose, and 2% cholesterol) following arrival, inducing non-alcoholic steatohepatitis (NASH). Following acclimation, Groups 1 and 2 (n=22 each) were dosed by intragastric oral gavage (PO) with (respectively) vehicle (distilled water) or denatonium acetate (DA) at 30 mg/kg. Doses were administered once daily (QD) for a full year (through Day 366) at dose volumes of 1 mL/kg. Body weights and clinical observations were monitored throughout the study. Blood was collected from fasted animals at baseline (Day −1) and regularly during the study (Weeks 4, 12, 24, and 48), processed to serum or plasma, and evaluated for metabolic parameters [glucose, insulin, hemoglobin A1c (HbA1c), and glucagon-like peptides 1 and 2 (GLP-1 and -2)], selected serum chemistry parameters [Ala aminotransferase (ALT), Asp aminotransferase (AST), albumin (ALB), and total bile acids (BA)], and multiple cytokines (32 total). After 52 weeks of QD dosing, fasted animals were bled and euthanized, and livers were collected and weighed. Terminal serum samples were assessed for low- and high-density cholesterol (LDL and HDL, respectively) and triglycerides (TGA); liver was assessed for total cholesterol (TC), TGA, and free fatty acids (FFA).
Male C57BL/6 mice (n=44) were purchased from Taconic Biosciences, Inc. (Rensselaer, NY), as 4-week-old animals. Following arrival, animals were weighed using an electronic balance (Ohaus SCOUT® PRO, Parsippany, NJ), given a clinical examination to ensure that the mice were in good condition, and group-housed (up to 4 per cage). The animals were maintained in HEPA-filtered static cages using SaniChip bedding 7090A (Harlan Teklad, Hayward, CA). Animal room controls were set to maintain temperature and relative humidity at 22° C.±4° C. and 50% 20%, respectively. Housing rooms were on a 12:12 light/dark cycle. Animals were acclimated on site for at least 3 days prior to entry onto the study. Following arrival and throughout the study, mice were provided with ad libitum access to water (via water bottles) and (except as noted for fasting) to a high-fat “Western diet” (AMLN diet, No. D09100301; Research Diets, New Brunswick, NJ) containing 40 kcal % fat, 20 kcal % fructose, and 2% cholesterol.
DA was formulated at 30 mg/mL in DW. Solid DA was weighed and added to the appropriate volume of DW; the solution was mixed well and inspected visually to ensure that there was no precipitate and to verify that the test article was completely solubilized. The DA dosing solution was prepared freshly each week and stored refrigerated at 4° C. between use in daily dose administrations. On Day −1 (i.e., one day before the start of dosing); and on Weeks 4, 12, 24, and 48 (i.e., after one, 3, 6, and 12 months of dosing), blood and fecal samples were collected from fasted animals. • Fecal samples (4 pellets per cage of 3-4 mice) were collected directly collected from the floor of each cage, divided into two aliquots, and stored at −80° C. for future microbiota and microbiome analysis. Results of those analyses are not included in this report. • Blood (100 μL/animal) was collected from each animal via the submandibular route. All blood samples were assessed for blood glucose levels and then processed to both serum and plasma. […]

[3] = 23.1 mg/kg BID DA; cited from earlier work
[4] = DA 75 then 50 mg/kg BID, 12 weeks
[5] = 30 mg/kg PO QD, one year (48 weeks in Table 2), blinded histopathologic review
[6] = 30 mg/kg PO QD, only at Week 24
[7] = after one year of QD dosing, 30 mg/kg
[8] = after one year of daily dosing, 30 mg/kg

SMILES: CC(=O)[O-].CC[N+](CC)(CC(=O)Nc1c(C)cccc1C)Cc1ccccc1 [DA, denatonium acetate]
- body weight [1, 4]: remarkable effect
- body weight change [1, 4]: remarkable effect
- liver weight vs vehicle [1, 4]: significantly decreased
- liver/body weight ratio vs vehicle [1, 4]: significantly decreased
- NAFLD Activity Score ([1]; blinded histopathologic review, DA 75 then 50 mg/kg BID, 12 weeks): significantly improved
- ALT levels vs vehicle control ([1]; end of the study): significantly decreased
- AST levels vs vehicle control ([1]; end of the study): significantly decreased
- CK-18 levels vs vehicle control ([1]; end of the study): significantly decreased
- high density lipoproteins (HDL) ([1]; end of the study): significantly decreased
- low density lipoproteins (LDL) ([1]; end of the study): significantly decreased
- triglycerides (TG) ([1]; end of the study): significantly decreased
- levels of the other (n=24) assessed cytokines vs vehicle ([2]; 30 mg/kg PO QD): Significant treatment-related differences were not seen
- animals found dead during the study ([2]; 30 mg/kg PO QD, n=22, Weeks 12 and 49, unclear if test article related): two
- fibrosis on histopathology [2, 5]: improved/abrogated
- steatosis on histopathology [2, 5]: significantly improved
- total fibrosis score ([2]; 30 mg/kg PO QD, one year, 1.52 vs. 0.58, p<0.0001): 0.58
- relative body weights vs vehicle ([2]; 30 mg/kg PO QD, Day 4): lower
- IP-10 blood level vs vehicle ([2]; 30 mg/kg PO QD, Week 4 only): Statistically significant attenuation
- MIP-1B blood level vs vehicle ([2]; 30 mg/kg PO QD, Week 4 only): Statistically significant attenuation
- IL-13 blood level vs vehicle ([2]; 30 mg/kg PO QD, Week 12 only): Statistically significant attenuation
- MIP-1a blood level vs vehicle ([2]; 30 mg/kg PO QD, Week 24 only): Statistically significant attenuation
- Serum BA levels vs vehicle ([2]; 30 mg/kg PO QD, Week 24 only): significantly attenuated
- fasting blood glucose levels vs vehicle ([2]; 30 mg/kg PO QD, Week 24 only): significantly lower
- GLP-2 levels vs vehicle ([2]; 30 mg/kg PO QD, Week 48): did not differ significantly
- IL-6 blood level vs vehicle ([2]; 30 mg/kg PO QD, Week 48 only): Statistically significant attenuation
- IL-9 blood level vs vehicle ([2]; 30 mg/kg PO QD, Week 48 only): Statistically significant attenuation
- KC blood level vs vehicle ([2]; 30 mg/kg PO QD, Week 48 only): Statistically significant attenuation
- insulin levels vs vehicle ([2]; 30 mg/kg PO QD, Weeks 4 and 12, not subsequently): significantly elevated
- MIG blood level vs vehicle ([2]; 30 mg/kg PO QD, Weeks 4 and 48 only): Statistically significant attenuation
- HbA1c levels vs vehicle ([2]; 30 mg/kg PO QD, Weeks 12 and 48, not Week 24): significantly attenuated
- Serum ALT activity levels vs vehicle ([2]; 30 mg/kg PO QD, Weeks 24 and 48, not earlier): significantly attenuated
- Serum ALB levels vs vehicle ([2]; 30 mg/kg PO QD, any assessed time point): did not differ significantly
- body weight increase from baseline ([2]; 30 mg/kg PO QD, during the first 5 months (both groups)): ~150%
- body weights (absolute or relative) vs vehicle ([2]; 30 mg/kg PO QD, during the study except Day 4 relative): did not differ in a statistically significant manner
- body weights mean increase from baseline ([2]; 30 mg/kg PO QD, during the year-long study (both groups)): approximately 200%
- GLP-1 levels vs vehicle [2, 6]: significantly attenuated
- Serum AST activity levels vs vehicle [2, 6]: significantly attenuated
- Lowered serum levels of ALT ([2]; 30 mg/kg, PO, QD for 48 weeks): ALT (−43%),
- Lowered serum levels of AST ([2]; 30 mg/kg, PO, QD for 48 weeks): AST (−9.5%),
- Lowered serum levels of HbA1c ([2]; 30 mg/kg, PO, QD for 48 weeks): HbA1c (−6.7%),
- Lowered serum levels of bile acid ([2]; 30 mg/kg, PO, QD for 48 weeks): acid (−16.2%)
- Lowered serum levels of fasting glucose ([2]; 30 mg/kg, PO, QD for 48 weeks): glucose (−9%),
- decreased liver weight of animals ([2]; 30 mg/kg, PO, QD for 48 weeks): (by 10%)
- serum levels of GLP-1 (Table 2 summary) ([2]; 30 mg/kg, PO, QD for 48 weeks): Increased
- serum levels of GLP-2 (Table 2 summary) ([2]; 30 mg/kg, PO, QD for 48 weeks): Increased
- serum levels of inflammatory markers ([2]; 30 mg/kg, PO, QD for 48 weeks): Lowered serum
- absolute liver weight at necropsy vs vehicle [2, 7]: not absolute liver weight was attenuated
- relative (body weight-normalized) liver weight at necropsy vs vehicle [2, 7]: attenuated
- Liver TGA levels vs vehicle [2, 8]: significantly attenuated
- Serum TGA levels vs vehicle [2, 8]: significantly attenuated
- liver FFA levels vs vehicle [2, 8]: not those of TC or FFA, were significantly attenuated
- liver TC levels vs vehicle [2, 8]: not those of TC or FFA, were significantly attenuated
- serum HDL levels vs vehicle [2, 8]: not those of HDL or LDL, were significantly attenuated
- serum LDL levels vs vehicle [2, 8]: not those of HDL or LDL, were significantly attenuated
- adverse effects on survival, body weight, or clinical signs ([2]; mouse, in vivo, po, 30 mg/kg): did not appear to have adverse effects
- weight gain [3]: significant reduction
